Results from patent publication US6451568B1, “Cloning of human choline ethanolaminephospho transferases synthesis of phosphatidyl choline phosphatidyle thanolamine and platelet activating factor” (Dalhousie University, priority 1998, dated 2002).
Values joined by “and” are separate entries in the source; they are usually repeats but may differ in a detail not shown here. Equal values may be shown once. “Also recorded” adds a separate entry of the source.

Key:
hCEPT1p = target: T1, hCEPT1p (Homo sapiens, UniProt Q9Y6K0); test: Choline-/ethanolaminephosphotransferase enzyme assay, microsomal membranes of S. cerevisiae HJ091 expressing hCEPT1; type: biochemical; details: for Specific activity with CDP-choline (in words): CDP-choline as donor, synthesis of PAF, acyl-PAF, di10:0 PtdCho; for Enzyme activity, CDP-choline: phosphobase donor CDP-choline; for Enzyme activity, CDP-choline / Enzyme activity, CDP-ethanolamine: diradylglycerol as acceptor substrate, hCEPT1p in S. cerevisiae HJ091 microsomes; for Enzyme activity, CDP-ethanolamine: phosphobase donor CDP-ethanolamine
T1 construct: All of the hCEPT1p detected in S. cerevisiae was full length; made in house; host or cells: S. cerevisiae HJ091 (cpt1::LEU2 ept1-), plasmid pAH9, microsomal membranes
T1 sequence (Q9Y6K0 1-416): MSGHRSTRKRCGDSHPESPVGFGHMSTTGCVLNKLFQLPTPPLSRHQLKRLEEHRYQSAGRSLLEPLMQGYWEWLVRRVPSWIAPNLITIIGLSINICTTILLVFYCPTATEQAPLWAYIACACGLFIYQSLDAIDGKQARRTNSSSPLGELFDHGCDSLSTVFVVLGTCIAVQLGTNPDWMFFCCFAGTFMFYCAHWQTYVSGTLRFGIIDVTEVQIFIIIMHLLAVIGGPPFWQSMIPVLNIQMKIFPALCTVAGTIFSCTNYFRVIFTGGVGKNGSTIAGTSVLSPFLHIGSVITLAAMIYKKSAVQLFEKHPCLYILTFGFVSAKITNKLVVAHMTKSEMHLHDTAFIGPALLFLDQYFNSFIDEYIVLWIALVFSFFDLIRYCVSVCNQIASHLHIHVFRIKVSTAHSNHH
Experimental: Diradylglycerols or ceramides were dried under nitrogen gas and resuspended in 0.015% (w/v) Tween 20™ by sonication. […] Assays were incubated at 37° C. for 15 min and activity terminated by the addition of 3 ml CHCl3/ CH3OH (2/1, v/v) followed by 1.5 ml 0.9% (w/v) KCl. Tubes were vortexed and phase separation facilitated by centrifugation at 2000 g for 10 min. The aqueous phase was aspirated and the organic phase was washed twice with 1.5 ml 40% (v/v) CH3OH. An aliquot of the organic phase was dried in a scintillation vial and radioactivity was determined.

hCEPT2 = target: T2, hCEPT2 (Homo sapiens, UniProt Q8WUD6); test: Choline-/ethanolaminephosphotransferase activity of microsomes from HEK293s cells overexpressing hCEPT2; type: biochemical
T2 construct: A full length cDNA was isolated using the Genetrapper™ system technology; expressed in transfected cells; host or cells: HEK293s cells, plasmid pCMVsport-hCEPT2 (clone from the pCMV-Sport human brain cDNA library), microsomal membranes
T2 sequence (Q8WUD6 2-406): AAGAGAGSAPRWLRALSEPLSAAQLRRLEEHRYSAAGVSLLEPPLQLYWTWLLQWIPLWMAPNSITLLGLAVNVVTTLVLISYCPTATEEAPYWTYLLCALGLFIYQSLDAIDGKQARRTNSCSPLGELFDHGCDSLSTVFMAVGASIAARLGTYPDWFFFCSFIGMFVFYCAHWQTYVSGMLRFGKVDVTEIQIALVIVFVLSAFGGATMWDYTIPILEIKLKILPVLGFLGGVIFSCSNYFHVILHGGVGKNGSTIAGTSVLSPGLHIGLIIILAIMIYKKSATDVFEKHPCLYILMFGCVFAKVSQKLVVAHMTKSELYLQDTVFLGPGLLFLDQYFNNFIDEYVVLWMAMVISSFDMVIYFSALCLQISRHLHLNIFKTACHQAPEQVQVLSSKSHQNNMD
From the text: A full length cDNA was isolated using the Genetrapper™ system technology (Life Technologies). A primer corresponding to the most 5′ RACE extneded sequence in hand, […] (SEQ ID NO: 11) was biotinylated using terminal deoxynucleotide transferase and hybridized in solution to a single stranded human brain cDNA library that had been generated by digestion of the library with Gene II protein and exonuclease III. Avidin bound to magnetic beads was used to selectively precipitate the biotinylated probe/hybridized cDNA complex, thus enriching the library for cDNAs complementary to the oligonucleotide used. The single stranded cDNAs were extended using Klenow and E. coli were transformed and screened for positive clones with the end labeled antisense oligo, […], found within the original EST 67440. Plasmid DNA from positive colonies was amplified and hCEPT2 specific inserts confirmed and sized by PCR.
Diradylglycerols or ceramides were dried under nitrogen gas and resuspended in 0.015% (w/v) Tween 20™ by sonication. Unless otherwise indicated, assay buffer contained 100 mM Tris-HCl (pH 8.0), 20 mM MgCl2, 1 mM EDTA, 1 mM diradylglycerol or ceramide (final Tween 20 concentration of 0.00375%, w/v), and 10 μg of microsomal protein. […] Assays were incubated at 37° C. for 15 min and activity terminated by the addition of 3 ml CHCl3/ CH3OH (2/1, v/v) followed by 1.5 ml 0.9% (w/v) KCl. Tubes were vortexed and phase separation facilitated by centrifugation at 2000 g for 10 min. The aqueous phase was aspirated and the organic phase was washed twice with 1.5 ml 40% (v/v) CH3OH. An aliquot of the organic phase was dried in a scintillation vial and radioactivity was determined. Samples were routinely analyzed by thin layer chromatography on silica gel plates in a solvent system of CHCl3/CH3OH/NH4OH/H2) (70/30/4/2, v/v) to confirm the synthesis of PtdCho, PtdEtn, and PAF and their analogues.

CCCCCCCCCC(=O)OCC(CO)OC(=O)CCCCCCCCC (stereo not drawn) [di10:0]
Specific activity with CDP-choline (in words) (hCEPT1p): highest specific activities | Enzyme activity, CDP-choline (hCEPT1p): 172.5 ± 9.8 nmol/min/mg | Enzyme activity, CDP-ethanolamine (hCEPT1p): 3.7 ± 0.4 nmol/min/mg

CCCCCCCCCCCCCC(=O)OC[C@H](CO)OC(=O)CCCCCCCCCCCCC [di14:0]
Enzyme activity, CDP-choline (hCEPT1p): 6.7 ± 0.2 nmol/min/mg | Enzyme activity, CDP-ethanolamine (hCEPT1p): 3.7 ± 0.1 nmol/min/mg

CCCCCCCCCCCCCCCC(=O)OC[C@H](CO)OC(=O)CCCCCCCCCCCCCCC [di16:0]
Enzyme activity, CDP-choline (hCEPT1p): 4.3 ± 0.2 nmol/min/mg | Enzyme activity, CDP-ethanolamine (hCEPT1p): 3.5 ± 0.2 nmol/min/mg

O[C@@H](CS)[C@@H](O)CS [DTT]
Effect of DTT on cholinephosphotransferase activity (hCEPT1p; DTT 0-5 mM in assay mix, regardless of the diradylglycerol substrate, data not shown): insensitive; also recorded: did not affect

CCCCCCCC(=O)OC[C@H](CO)OC(=O)CCCCCCC [di8:0]
Enzyme activity, CDP-choline (hCEPT1p): 54.9 ± 6.4 nmol/min/mg | Enzyme activity, CDP-ethanolamine (hCEPT1p): 3.1 ± 0.4 nmol/min/mg

CCCCCCCCCCCC(=O)OCC(CO)OC(=O)CCCCCCCCCCC (stereo not drawn) [di12:0]
Enzyme activity, CDP-choline (hCEPT1p): 27.2 ± 6.9 nmol/min/mg | Enzyme activity, CDP-ethanolamine (hCEPT1p): 2.7 ± 0.3 nmol/min/mg

CCCCCCCCCCCCCCCCOCC(CO)OC(C)=O (stereo not drawn) [1-O-16:0/2:0]
Specific activity with CDP-choline (in words) (hCEPT1p; listed as 1O-16:0/2:0): highest specific activities | Specific activity with CDP-choline (in words) (hCEPT1p; listed as 16:0/2:0): High activities | Enzyme activity, CDP-choline (hCEPT1p): 106.0 ± 5.6 nmol/min/mg

NCCOP(=O)(O)OP(=O)(O)OC[C@H]1O[C@@H](n2ccc(N)nc2=O)[C@H](O)[C@@H]1O [CDP-ethanolamine]
Vmax(app) (hCEPT1p; di18:1 as the diradylglycerol substrate): 12.8 nmol/min/mg | Km (hCEPT1p; di18:1 as the diradylglycerol substrate, read-out: Km(app)): 109 µM

B1: hCEPT2: human choline/ethanolaminephosphotransferase 2, SEQ ID NO:4 (protein)
chain: MAAGAGAGSAPRWLRALSEPLSAAQLRRLEEHRYSAAGVSLLEPPLQLYWTWLLQWIPLWMAPNSITLLGLAVNVVTTLVLISYCPTATEEAPYWTYLLCALGLFIYQSLDAIDGKQARRTNSCSPLGELFDHGCDSLSTVFMAVGASIAARLGTYPDWFFSCSFIGMFVFYCAHWQTYVSGMLRFGKVDVTEIQIALVIVFVLSAFGGATMWDYTIPILEIKLKILPVLGFLGGVIFSCSNYFHVILHGGVGKNGSTIAGTSVLSPGLHIGLIIILAIMIYKKSATDVFEKHPCLYILMFGCVFAKVSQKLVVAHMTKSELYLQDTVFLGPGLLFLDQYFNNFIDEYVVLWMAMVISSFDMVIYFSALCLQISRHLHLNIFKTACHQAPEQVQVLSSKSHQNNMD
Cholinephosphotransferase activity, mean (hCEPT2; CDP-AA choline, mean of duplicates): 10.673 nmol/min/mg | Cholinephosphotransferase activity (hCEPT2; CDP-AA choline, single determinations): 10.638 nmol/min/mg and 10.708 nmol/min/mg | Ethanolaminephosphotransferase activity, mean (hCEPT2; CDP-AA ethanolamine, mean of duplicates): 2.427 nmol/min/mg | Ethanolaminephosphotransferase activity (hCEPT2; CDP-AA ethanolamine, single determinations): 2.169 nmol/min/mg and 2.685 nmol/min/mg
